Earlier results on one compound are cited in PubChem BioAssay AID1259409 (Chemical Carcinogenesis Research Information System (CCRIS), 2018).

The series concerns rodent chemically induced tumor inhibition, incidence and multiplicity. Put plainly: CCRIS tumor inhibitor studies. The conditions noted are these: Carcinogen: DIETHYLNITROSAMINE, 55-18-5, N-METHYL-N-NITROSOUREA, 684-93-5, N-BUTYL-N-(4-HYDROXYBUTYL)NITROSAMINE, 3817-11-6, DIMETHY, Carcinogen: DIETHYLNITROSAMINE, 55-18-5, N-METHYL-N-NITROSOUREA, 684-93-5, N-BUTYL-N-(4-HYDROXYBUTYL)NITROSAMINE, 3817-11-6, DIMETHY, Dose [Inhibitor]: 0, Route [Inhibitor]: ORAL, Species: RAT, Strain/Sex: F344/MALE, Dose [Carcinogen]: 100 MG/KG BW DEN ONCE FOLLOWED BY 20 MG/KG BW MNU 4 TIMES AND 0.05% BBN IN DRINKING WATER DURING FIRST 2 WK THEN 40 MG/K, Promoter: NONE USED.

Consider `CCOC1=C(O)C(=O)O[C@@H]1[C@@H](O)CO`, for which the “tumour outcome (control, treated, inhibition, significance)” value was 7%, 7%, 0%, not significant (1% IN THE DIET FOR 24 WK BEGINNING 1 DAY POST CARCINOGEN TREATMENT (STUDY DURATION: 28 WK), Target Tissue: Type of Lesion: URINARY BLADDER: PAPILLOMA); 27%, 33%, -22%, not significant (1% IN THE DIET FOR 30 D BEGINNING 1 DAY PRIOR TO CARCINOGEN TREATMENT (STUDY DURATION: 28 WK), Target Tissue: Type of Lesion: LARGE INTESTINE: ADENOMA); 7%, 40%, -471%, not significant (1% IN THE DIET FOR 30 D BEGINNING 1 DAY PRIOR TO CARCINOGEN TREATMENT (STUDY DURATION: 28 WK), Target Tissue: Type of Lesion: LARGE INTESTINE: CARCINOMA); 33%, 7%, 79%, not significant (1% IN THE DIET FOR 30 D BEGINNING 1 DAY PRIOR TO CARCINOGEN TREATMENT (STUDY DURATION: 28 WK), Target Tissue: Type of Lesion: SMALL INTESTINE: ADENOMA); 7%, 7%, 0%, not significant (1% IN THE DIET FOR 30 D BEGINNING 1 DAY PRIOR TO CARCINOGEN TREATMENT (STUDY DURATION: 28 WK), Target Tissue: Type of Lesion: SMALL INTESTINE: CARCINOMA); 7%, 0%, 100%, not significant (1% IN THE DIET FOR 30 D BEGINNING 1 DAY PRIOR TO CARCINOGEN TREATMENT (STUDY DURATION: 28 WK), Target Tissue: Type of Lesion: THYROID: CARCINOMA). The “tumour outcome (control, treated, inhibition, significance)” value (1% IN THE DIET FOR 30 DAYS BEGINNING 1 DAY PRIOR TO CARCINOGEN TREATMENT (STUDY DURATION: 28 WK), Target Tissue: Type of Lesion: URINARY BLADDER: CARCINOMA) is 7%, 7%, 0%, not significant and the “tumour outcome (control, treated, inhibition, significance)” value (1% IN THE DRINKING WATER FOR 24 WK BEGINNING 1 DAY POST CARCINOGEN TREATMENT (STUDY DURATION: 28 WK), Target Tissue: Type of Lesion: SMALL INTESTINE: CARCINOMA) is 7%, 0%, 100%, not significant.
